Measurements reported in patent US8440442B2, “Method of assaying 5-FU” (Myriad Genetics, Inc, priority 2009, dated 2013).

Assays:
[1] = biological target: T1, dihydropyrimidine dehydrogenase (DPD) (Homo sapiens, UniProt Q12882); test: Low concentrations of gimeracil in 5-FU spiked blood, plasma 5-FU initial and after 24 hr; assay type: biochemical; conditions: for 5-FU concentration, Initial / 5-FU concentration, 24 hr: blood spiked 500 ng/mL 5-FU; for 5-FU concentration, Initial: after plasma collection; for 5-FU concentration, 24 hr: plasma 24 hours at room temperature
T1 construct: from tissue; host or cells: donor whole blood (K2EDTA), plasma separated from it, and WBC/buffy coat
T1 sequence (Q12882 4-1025): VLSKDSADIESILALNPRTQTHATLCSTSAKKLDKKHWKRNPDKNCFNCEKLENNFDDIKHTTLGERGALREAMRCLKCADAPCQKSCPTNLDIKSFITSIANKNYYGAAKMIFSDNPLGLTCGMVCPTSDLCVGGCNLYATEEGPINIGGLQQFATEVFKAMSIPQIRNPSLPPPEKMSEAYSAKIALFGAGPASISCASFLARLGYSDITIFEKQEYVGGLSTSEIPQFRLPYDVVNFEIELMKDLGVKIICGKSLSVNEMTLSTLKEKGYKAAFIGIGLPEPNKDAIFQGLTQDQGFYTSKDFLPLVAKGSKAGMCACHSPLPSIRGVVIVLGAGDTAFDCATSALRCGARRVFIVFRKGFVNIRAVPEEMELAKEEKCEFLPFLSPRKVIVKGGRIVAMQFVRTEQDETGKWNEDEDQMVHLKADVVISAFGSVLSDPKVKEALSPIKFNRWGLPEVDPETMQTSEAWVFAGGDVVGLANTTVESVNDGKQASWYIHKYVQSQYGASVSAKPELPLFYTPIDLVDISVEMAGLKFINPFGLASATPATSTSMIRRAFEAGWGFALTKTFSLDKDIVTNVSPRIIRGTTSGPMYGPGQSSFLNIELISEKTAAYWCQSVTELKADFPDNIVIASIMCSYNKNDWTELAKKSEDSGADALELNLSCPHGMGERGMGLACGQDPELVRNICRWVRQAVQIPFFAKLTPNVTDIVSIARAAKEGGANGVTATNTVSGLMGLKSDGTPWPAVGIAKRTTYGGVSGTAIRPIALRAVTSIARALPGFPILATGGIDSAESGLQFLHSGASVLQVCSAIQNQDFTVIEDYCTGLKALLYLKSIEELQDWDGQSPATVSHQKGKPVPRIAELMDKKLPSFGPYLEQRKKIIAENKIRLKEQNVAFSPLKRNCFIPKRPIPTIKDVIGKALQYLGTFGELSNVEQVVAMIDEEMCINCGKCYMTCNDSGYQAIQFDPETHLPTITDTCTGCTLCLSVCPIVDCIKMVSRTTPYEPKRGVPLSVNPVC
Description: (§1) In the following illustrative examples, 5-FU was measured using an antibody-based agglutination assay on the Olympus AU680 Analyzer using an antibody disclosed in U.S. Pat. No. 7,205,116. Specifically, the concentration of 5-FU in a sample is determined based on the absorbance of a sample, which is determined by the amount of aggregation by the nanoparticles. The system requires two reagents, which when mixed in the absence of free 5-FU will form large aggregates of nanoparticles and scatter light to result in a higher absorption value. In the presence of free 5-FU, the agglutination reaction becomes somewhat inhibited and scattering of light is less, causing a lower absorption value. The instrument is calibrated twice monthly, and a curve is generated (Absorbance vs. 5-FU concentration). Absorbance values from individual samples are compared against this curve to determine concentration.
(§2) Generally in the agglutination assay, 95 μl of a buffer containing 5-FU-labeled amino-dextran is pipetted to a cuvette, followed by 7 μL of a filtered plasma sample. The sample and reagent are mixed and then incubated for about 3.5 minutes. 95 μl of 5-FU antibody-conjugated nanoparticles is pipetted into the cuvette and mixed. The complete reaction incubates for about 6.2 minutes. A series of 27 measurements at 600 nm are taken at regular intervals by the AU680 analyzer throughout this process, and 5-FU concentration is calculated using the measurements from two specific time points.
Four tubes of blood (spray-on K2EDTA tubes, 10 mL) was drawn from each of five donors, and gently inverted several times to mix anti-coagulant. Blood was pooled by donor into conical tubes. An aliquot of each donor's blood was transferred to a clean tube. A calculated volume of 5-FU stock (at 200 ng/μL) was added to each blood sample to achieve a final concentration of 500 ng/mL 5-FU, and tubes were inverted to mix. Spiked blood was aliquotted into clean tubes, nine tubes per donor and 3.5 mL of blood per tube. Gimeracil was added to the tubes at a final concentration of 200, 400, or 600 ng/mL for each tube. In addition, in control samples, methanol was added to the blood instead of gimeracil, in order to serve as a negative control. The blood tubes sat at room temperature for 45 minutes after the addition of the gimeracil or methanol. At the appropriate times, the blood tubes were centrifuged at 2000×g for 10 minutes at room temperature to separate plasma. Plasma was aspirated immediately after centrifugation, and the plasma was dispensed into clean tubes. Plasma samples were run using standard conditions for Olympus AU680 analyzer (200 μL, spin for 15 minutes at 12,500 rpm). Measurements of 5-FU concentration were taken after plasma collection (“initial”) and 24 hours (“24 hr”) thereafter. For the 24 hr measurement, plasma was stored at room temperature during the 24 hours. As shown in Table 2 and FIG. 4, low concentrations of gimeracil in blood is also effective at inhibiting DPD-mediated degradation of 5-FU. The overall percent difference in 5-FU concentration between the samples containing 200 ng/mL and 600 ng/mL gimeracil is less than 1%.

[2] = biological target: T1, dihydropyrimidine dehydrogenase (DPD); test: 5-Vinyluracil, 5-iodouracil and gimeracil as stabilizer of 5-FU in spiked donor blood; assay type: biochemical; conditions: 500 ng/mL 5-FU; 5-iodouracil 10/40 μg/mL, 5-vinyluracil 5/20 μg/mL, gimeracil 300/1,200 ng/mL; 45 minutes room temperature (FIG. 3)
Description: as §1, §2
Three tubes of blood (spray-on K2EDTA tubes, 10 mL) was drawn from each of six donors, and blood tubes were gently inverted several times to mix anti-coagulant. Blood was pooled and kept separate by donor. An aliquot of each blood sample was transferred to a new conical tube, and a calculated volume of stock 5-FU (at 200 ng/μL) was spiked into each blood sample for a final concentration of 500 ng/mL 5-FU. Each blood sample was aliquotted to a set of four tubes (5 mL blood per tube). Each set of tubes was different, but included a combination of the conditions below: […]

Oc1cc(O)c(Cl)cn1 [Gimeracil, 5-chloro-2,4-dihydroxypyridine]
overall percent difference in 5-FU concentration between samples containing 200 ng/mL and 600 ng/mL gimeracil ([1]; 500 ng/mL 5-FU spiked blood): less than 1%
5-FU concentration, Initial ([1]; gimeracil 200 ng/mL): 518.7
5-FU concentration, 24 hr ([1]; gimeracil 200 ng/mL): 523.4
5-FU concentration, Initial ([1]; gimeracil 400 ng/mL): 523.0
5-FU concentration, 24 hr ([1]; gimeracil 400 ng/mL): 521.6
5-FU concentration, Initial ([1]; gimeracil 600 ng/mL): 519.5
5-FU concentration, 24 hr ([1]; gimeracil 600 ng/mL): 523.3
inhibiting DPD-mediated degradation of 5-FU ([1]; low concentrations of gimeracil in blood (200, 400, 600 ng/mL), Table 2 and FIG. 4): effective
stabilizing 5-FU in blood samples [2]: effective
